In the assay the test system is P-388 lymphocytic leukemia cells. In words: cytotoxicity, cell culture assay using P-388 lymphocytic leukemia cells, compared with taxol. Conditions: for ED50 /ED50 (taxol): P-388 leukemia, value of less than 1 = more active than taxol; for biological activity as compared with taxol (in words): P-388 cell culture assay; for antineoplastic activity relative to taxol, cell culture assay (P-388 leukemia in vitro): fold activity versus taxol. Type of assay: cell-based. The text has this: Acylation of 22 with various aromatic carboxylic acids in the presence of dicyclohexylcarbodiimide and 4-pyrrolidinopyridine has led to the preparation of various 2-debenzoyl-2-acyl taxols 13. […] For details of the cell culture assay, see Abbott, B. J., "Protocol 14 of Instruction 275," National Cancer Institute, National Institutes of Health, Jan. 24, 1978.

Take `CC(=O)O[C@H]1C(=O)[C@@]2(C)[C@H]([C@H](OC(=O)c3cccc(N)c3)[C@]3(O)C[C@H](OC(=O)[C@H](O)[C@@H](NC(=O)c4ccccc4)c4ccccc4)C(C)=C1C3(C)C)[C@]1(OC(C)=O)CO[C@@H]1C[C@@H]2O` [Compound 13a]: the “ED50 /ED50 (taxol)” value was 1500. For `CC(=O)O[C@H]1C(=O)[C@@]2(C)[C@H]([C@H](OC(=O)c3ccc(C#N)cc3)[C@]3(O)C[C@H](OC(=O)[C@H](O)[C@@H](NC(=O)c4ccccc4)c4ccccc4)C(C)=C1C3(C)C)[C@]1(OC(C)=O)CO[C@@H]1C[C@@H]2O` [Compound 13aa], the “ED50 /ED50 (taxol)” value is 30.

Turning to `CC(=O)O[C@H]1C(=O)[C@@]2(C)[C@H]([C@H](OC(=O)/C=C/c3ccccc3)[C@]3(O)C[C@H](OC(=O)[C@H](O)[C@@H](NC(=O)c4ccccc4)c4ccccc4)C(C)=C1C3(C)C)[C@]1(OC(C)=O)CO[C@@H]1C[C@@H]2O` [Compound 13b], the “biological activity as compared with taxol (in words)” value is given as “less active or about as active as taxol” and the “ED50 /ED50 (taxol)” value worked out at 10. As to `CC(=O)O[C@H]1C(=O)[C@@]2(C)[C@H]([C@H](OC(=O)c3ccc(Cl)cc3)[C@]3(O)C[C@H](OC(=O)[C@H](O)[C@@H](NC(=O)c4ccccc4)c4ccccc4)C(C)=C1C3(C)C)[C@]1(OC(C)=O)CO[C@@H]1C[C@@H]2O` [Compound 13bb], the “ED50 /ED50 (taxol)” value is on record as 150. Consider `CC(=O)O[C@H]1C(=O)[C@@]2(C)[C@H]([C@H](OC(=O)c3cccc([N+](=O)[O-])c3)[C@]3(O)C[C@H](OC(=O)[C@H](O)[C@@H](NC(=O)c4ccccc4)c4ccccc4)C(C)=C1C3(C)C)[C@]1(OC(C)=O)CO[C@@H]1C[C@@H]2O` [Compound 13c], for which the “biological activity as compared with taxol (in words)” value was “much greater biological activity than taxol” and the “ED50 /ED50 (taxol)” value is on record as 0.3. For `CSc1ccc(C(=O)O[C@H]2[C@@H]3[C@]4(OC(C)=O)CO[C@@H]4C[C@H](O)[C@@]3(C)C(=O)[C@H](OC(C)=O)C3=C(C)[C@@H](OC(=O)[C@H](O)[C@@H](NC(=O)c4ccccc4)c4ccccc4)C[C@]2(O)C3(C)C)cc1` [Compound 13cc], the “ED50 /ED50 (taxol)” value is 12. With `CC(=O)OC1C(=O)C2(C)C(O)CC3OCC3(OC(C)=O)C2C(OC(=O)c2cccc(Cl)c2)C2(O)CC(OC(=O)C(O)C(NC(=O)c3ccccc3)c3ccccc3)C(C)=C1C2(C)C` (stereo not shown) [Compound 13d], the “biological activity as compared with taxol (in words)” value was “much greater biological activity than taxol” and the “ED50 /ED50 (taxol)” value came out at 0.1. For the compound `CC(=O)O[C@H]1C(=O)[C@@]2(C)[C@H]([C@H](OC(=O)c3ccc([N+](=O)[O-])cc3)[C@]3(O)C[C@H](OC(=O)[C@H](O)[C@@H](NC(=O)c4ccccc4)c4ccccc4)C(C)=C1C3(C)C)[C@]1(OC(C)=O)CO[C@@H]1C[C@@H]2O` [Compound 13dd], the “ED50 /ED50 (taxol)” value was determined as 8.3. For the compound `CC(=O)OC1C(=O)C2(C)C(O)CC3OCC3(OC(C)=O)C2C(OC(=O)c2cc([N+](=O)[O-])cc([N+](=O)[O-])c2)C2(O)CC(OC(=O)C(O)C(NC(=O)c3ccccc3)c3ccccc3)C(C)=C1C2(C)C` (stereo not shown) [Compound 13e], the “ED50 /ED50 (taxol)” value is reported as 2.0. Consider `CC(=O)O[C@H]1C(=O)[C@@]2(C)[C@H]([C@H](OC(=O)c3ccc(C(F)(F)F)cc3)[C@]3(O)C[C@H](OC(=O)[C@H](O)[C@@H](NC(=O)c4ccccc4)c4ccccc4)C(C)=C1C3(C)C)[C@]1(OC(C)=O)CO[C@@H]1C[C@@H]2O` [Compound 13ee], for which the “ED50 /ED50 (taxol)” value came out at 30. As to `CC(=O)O[C@H]1C(=O)[C@@]2(C)[C@H]([C@H](OC(=O)c3cccc(N=[N+]=[N-])c3)[C@]3(O)C[C@H](OC(=O)[C@H](O)[C@@H](NC(=O)c4ccccc4)c4ccccc4)C(C)=C1C3(C)C)[C@]1(OC(C)=O)CO[C@@H]1C[C@@H]2O` [Compound 13f, 2-debenzoyl-2-(m-azidobenzoyl)taxol], the “biological activity as compared with taxol (in words)” value is “much greater biological activity than taxol”; the “ED50 /ED50 (taxol)” value was 0.002; the “antineoplastic activity relative to taxol, cell culture assay (P-388 leukemia in vitro)” value stood at 500 times. On to `CC(=O)O[C@H]1C(=O)[C@@]2(C)[C@H]([C@H](OC(=O)c3ccc(C(C)=O)cc3)[C@]3(O)C[C@H](OC(=O)[C@H](O)[C@@H](NC(=O)c4ccccc4)c4ccccc4)C(C)=C1C3(C)C)[C@]1(OC(C)=O)CO[C@@H]1C[C@@H]2O` [Compound 13ff], for which the “ED50 /ED50 (taxol)” value was 30. For the compound `COc1cc(C(=O)O[C@H]2[C@@H]3[C@]4(OC(C)=O)CO[C@@H]4C[C@H](O)[C@@]3(C)C(=O)[C@H](OC(C)=O)C3=C(C)[C@@H](OC(=O)[C@H](O)[C@@H](NC(=O)c4ccccc4)c4ccccc4)C[C@]2(O)C3(C)C)cc(OC)c1OC` [Compound 13g], the “ED50 /ED50 (taxol)” value came out at 0.5. For `CC(=O)O[C@H]1C(=O)[C@@]2(C)[C@H]([C@H](OC(=O)c3cccc(C#N)c3)[C@]3(O)C[C@H](OC(=O)[C@H](O)[C@@H](NC(=O)c4ccccc4)c4ccccc4)C(C)=C1C3(C)C)[C@]1(OC(C)=O)CO[C@@H]1C[C@@H]2O` [Compound 13h], the “ED50 /ED50 (taxol)” value stood at 0.25. Consider `CC(=O)O[C@H]1C(=O)[C@@]2(C)[C@H]([C@H](OC(=O)c3cccc(C(F)(F)F)c3)[C@]3(O)C[C@H](OC(=O)[C@H](O)[C@@H](NC(=O)c4ccccc4)c4ccccc4)C(C)=C1C3(C)C)[C@]1(OC(C)=O)CO[C@@H]1C[C@@H]2O` [Compound 13i], for which the “ED50 /ED50 (taxol)” value is 15. As for `CC(=O)O[C@H]1C(=O)[C@@]2(C)[C@H]([C@H](OC(=O)c3cccc(F)c3)[C@]3(O)C[C@H](OC(=O)[C@H](O)[C@@H](NC(=O)c4ccccc4)c4ccccc4)C(C)=C1C3(C)C)[C@]1(OC(C)=O)CO[C@@H]1C[C@@H]2O` [Compound 13j], the “ED50 /ED50 (taxol)” value was found to be 0.35.

For the compound `CC(=O)OC1C(=O)C2(C)C(O)CC3OCC3(OC(C)=O)C2C(OC(=O)c2cccs2)C2(O)CC(OC(=O)C(O)C(NC(=O)c3ccccc3)c3ccccc3)C(C)=C1C2(C)C` (stereo not shown) [Compound 13k], the “ED50 /ED50 (taxol)” value is on record as 10. Same read-out and setting: then `CC(=O)O[C@H]1C(=O)[C@@]2(C)[C@H]([C@H](OC(=O)c3ccc(Cl)c(Cl)c3)[C@]3(O)C[C@H](OC(=O)[C@H](O)[C@@H](NC(=O)c4ccccc4)c4ccccc4)C(C)=C1C3(C)C)[C@]1(OC(C)=O)CO[C@@H]1C[C@@H]2O` [Compound 13m], with 0.003. For the compound `CC(=O)O[C@H]1C(=O)[C@@]2(C)[C@H]([C@H](OC(=O)c3cccc(C)c3)[C@]3(O)C[C@H](OC(=O)[C@H](O)[C@@H](NC(=O)c4ccccc4)c4ccccc4)C(C)=C1C3(C)C)[C@]1(OC(C)=O)CO[C@@H]1C[C@@H]2O` [Compound 13n], the “ED50 /ED50 (taxol)” value is listed as 0.04. As to `CC(=O)O[C@H]1C(=O)[C@@]2(C)[C@H]([C@H](OC(=O)c3ccccc3Cl)[C@]3(O)C[C@H](OC(=O)[C@H](O)[C@@H](NC(=O)c4ccccc4)c4ccccc4)C(C)=C1C3(C)C)[C@]1(OC(C)=O)CO[C@@H]1C[C@@H]2O` [Compound 13o], the “biological activity as compared with taxol (in words)” value is “increased bioactivity as compared with taxol” and the “ED50 /ED50 (taxol)” value worked out at 0.011. On to `COc1cccc(C(=O)O[C@H]2[C@@H]3[C@]4(OC(C)=O)CO[C@@H]4C[C@H](O)[C@@]3(C)C(=O)[C@H](OC(C)=O)C3=C(C)[C@@H](OC(=O)[C@H](O)[C@@H](NC(=O)c4ccccc4)c4ccccc4)C[C@]2(O)C3(C)C)c1` [Compound 13p], for which the “ED50 /ED50 (taxol)” value amounted to 0.0004. The same measure, in the same setting: as for `CC(=O)O[C@H]1C(=O)[C@@]2(C)[C@H]([C@H](OC(=O)c3cccc(Oc4ccccc4)c3)[C@]3(O)C[C@H](OC(=O)[C@H](O)[C@@H](NC(=O)c4ccccc4)c4ccccc4)C(C)=C1C3(C)C)[C@]1(OC(C)=O)CO[C@@H]1C[C@@H]2O` [Compound 13r], the figure is 4.3; as for `CC(=O)O[C@H]1C(=O)[C@@]2(C)[C@H]([C@H](OC(=O)c3cccc(I)c3)[C@]3(O)C[C@H](OC(=O)[C@H](O)[C@@H](NC(=O)c4ccccc4)c4ccccc4)C(C)=C1C3(C)C)[C@]1(OC(C)=O)CO[C@@H]1C[C@@H]2O` [Compound 13s], 0.028. For `CC(=O)O[C@H]1C(=O)[C@@]2(C)[C@H]([C@H](OC(=O)c3cc(F)cc(F)c3)[C@]3(O)C[C@H](OC(=O)[C@H](O)[C@@H](NC(=O)c4ccccc4)c4ccccc4)C(C)=C1C3(C)C)[C@]1(OC(C)=O)CO[C@@H]1C[C@@H]2O` [Compound 13t, 2-debenzoyl-2-(3,5-difluorobenzoyl)taxol], the “ED50 /ED50 (taxol)” value worked out at 0.00004 and the “antineoplastic activity relative to taxol, cell culture assay (P-388 leukemia in vitro)” value is 25,000 times. For the setting “listed as drawing 14”, the “antineoplastic activity relative to taxol, cell culture assay (P-388 leukemia in vitro)” value is “about 25,000 times”. As to `CC(=O)O[C@H]1C(=O)[C@@]2(C)[C@H]([C@H](OC(=O)c3ccc4ccccc4c3)[C@]3(O)C[C@H](OC(=O)[C@H](O)[C@@H](NC(=O)c4ccccc4)c4ccccc4)C(C)=C1C3(C)C)[C@]1(OC(C)=O)CO[C@@H]1C[C@@H]2O` [Compound 13u], the “ED50 /ED50 (taxol)” value is listed as 10. For the compound `CC(=O)O[C@H]1C(=O)[C@@]2(C)[C@H]([C@H](OC(=O)c3ccoc3)[C@]3(O)C[C@H](OC(=O)[C@H](O)[C@@H](NC(=O)c4ccccc4)c4ccccc4)C(C)=C1C3(C)C)[C@]1(OC(C)=O)CO[C@@H]1C[C@@H]2O` [Compound 13v], the “ED50 /ED50 (taxol)” value was 1.4. With `CC(=O)O[C@H]1C(=O)[C@@]2(C)[C@H]([C@H](OC(C)=O)[C@]3(O)C[C@H](OC(=O)[C@H](O)[C@@H](NC(=O)c4ccccc4)c4ccccc4)C(C)=C1C3(C)C)[C@]1(OC(C)=O)CO[C@@H]1C[C@@H]2O` [Compound 13w], the “ED50 /ED50 (taxol)” value amounted to 28. `CC(=O)O[C@H]1C(=O)[C@@]2(C)[C@H]([C@H](OC(=O)COc3ccccc3)[C@]3(O)C[C@H](OC(=O)[C@H](O)[C@@H](NC(=O)c4ccccc4)c4ccccc4)C(C)=C1C3(C)C)[C@]1(OC(C)=O)CO[C@@H]1C[C@@H]2O` [Compound 13x]: the “ED50 /ED50 (taxol)” value is 0.7. Take `CC(=O)O[C@H]1C(=O)[C@@]2(C)[C@H]([C@H](OC(=O)c3ccc(F)cc3)[C@]3(O)C[C@H](OC(=O)[C@H](O)[C@@H](NC(=O)c4ccccc4)c4ccccc4)C(C)=C1C3(C)C)[C@]1(OC(C)=O)CO[C@@H]1C[C@@H]2O` [Compound 13y]: the “ED50 /ED50 (taxol)” value was 0.5.
